The source of these data is patent US9006450B2 (Boehringer Ingelheim International GmbH, priority 2010, dated 2015).

What is called IC50 is the concentration at which inhibition is half-maximal.

T1 sequence (O00763 129-2458 limits assumed): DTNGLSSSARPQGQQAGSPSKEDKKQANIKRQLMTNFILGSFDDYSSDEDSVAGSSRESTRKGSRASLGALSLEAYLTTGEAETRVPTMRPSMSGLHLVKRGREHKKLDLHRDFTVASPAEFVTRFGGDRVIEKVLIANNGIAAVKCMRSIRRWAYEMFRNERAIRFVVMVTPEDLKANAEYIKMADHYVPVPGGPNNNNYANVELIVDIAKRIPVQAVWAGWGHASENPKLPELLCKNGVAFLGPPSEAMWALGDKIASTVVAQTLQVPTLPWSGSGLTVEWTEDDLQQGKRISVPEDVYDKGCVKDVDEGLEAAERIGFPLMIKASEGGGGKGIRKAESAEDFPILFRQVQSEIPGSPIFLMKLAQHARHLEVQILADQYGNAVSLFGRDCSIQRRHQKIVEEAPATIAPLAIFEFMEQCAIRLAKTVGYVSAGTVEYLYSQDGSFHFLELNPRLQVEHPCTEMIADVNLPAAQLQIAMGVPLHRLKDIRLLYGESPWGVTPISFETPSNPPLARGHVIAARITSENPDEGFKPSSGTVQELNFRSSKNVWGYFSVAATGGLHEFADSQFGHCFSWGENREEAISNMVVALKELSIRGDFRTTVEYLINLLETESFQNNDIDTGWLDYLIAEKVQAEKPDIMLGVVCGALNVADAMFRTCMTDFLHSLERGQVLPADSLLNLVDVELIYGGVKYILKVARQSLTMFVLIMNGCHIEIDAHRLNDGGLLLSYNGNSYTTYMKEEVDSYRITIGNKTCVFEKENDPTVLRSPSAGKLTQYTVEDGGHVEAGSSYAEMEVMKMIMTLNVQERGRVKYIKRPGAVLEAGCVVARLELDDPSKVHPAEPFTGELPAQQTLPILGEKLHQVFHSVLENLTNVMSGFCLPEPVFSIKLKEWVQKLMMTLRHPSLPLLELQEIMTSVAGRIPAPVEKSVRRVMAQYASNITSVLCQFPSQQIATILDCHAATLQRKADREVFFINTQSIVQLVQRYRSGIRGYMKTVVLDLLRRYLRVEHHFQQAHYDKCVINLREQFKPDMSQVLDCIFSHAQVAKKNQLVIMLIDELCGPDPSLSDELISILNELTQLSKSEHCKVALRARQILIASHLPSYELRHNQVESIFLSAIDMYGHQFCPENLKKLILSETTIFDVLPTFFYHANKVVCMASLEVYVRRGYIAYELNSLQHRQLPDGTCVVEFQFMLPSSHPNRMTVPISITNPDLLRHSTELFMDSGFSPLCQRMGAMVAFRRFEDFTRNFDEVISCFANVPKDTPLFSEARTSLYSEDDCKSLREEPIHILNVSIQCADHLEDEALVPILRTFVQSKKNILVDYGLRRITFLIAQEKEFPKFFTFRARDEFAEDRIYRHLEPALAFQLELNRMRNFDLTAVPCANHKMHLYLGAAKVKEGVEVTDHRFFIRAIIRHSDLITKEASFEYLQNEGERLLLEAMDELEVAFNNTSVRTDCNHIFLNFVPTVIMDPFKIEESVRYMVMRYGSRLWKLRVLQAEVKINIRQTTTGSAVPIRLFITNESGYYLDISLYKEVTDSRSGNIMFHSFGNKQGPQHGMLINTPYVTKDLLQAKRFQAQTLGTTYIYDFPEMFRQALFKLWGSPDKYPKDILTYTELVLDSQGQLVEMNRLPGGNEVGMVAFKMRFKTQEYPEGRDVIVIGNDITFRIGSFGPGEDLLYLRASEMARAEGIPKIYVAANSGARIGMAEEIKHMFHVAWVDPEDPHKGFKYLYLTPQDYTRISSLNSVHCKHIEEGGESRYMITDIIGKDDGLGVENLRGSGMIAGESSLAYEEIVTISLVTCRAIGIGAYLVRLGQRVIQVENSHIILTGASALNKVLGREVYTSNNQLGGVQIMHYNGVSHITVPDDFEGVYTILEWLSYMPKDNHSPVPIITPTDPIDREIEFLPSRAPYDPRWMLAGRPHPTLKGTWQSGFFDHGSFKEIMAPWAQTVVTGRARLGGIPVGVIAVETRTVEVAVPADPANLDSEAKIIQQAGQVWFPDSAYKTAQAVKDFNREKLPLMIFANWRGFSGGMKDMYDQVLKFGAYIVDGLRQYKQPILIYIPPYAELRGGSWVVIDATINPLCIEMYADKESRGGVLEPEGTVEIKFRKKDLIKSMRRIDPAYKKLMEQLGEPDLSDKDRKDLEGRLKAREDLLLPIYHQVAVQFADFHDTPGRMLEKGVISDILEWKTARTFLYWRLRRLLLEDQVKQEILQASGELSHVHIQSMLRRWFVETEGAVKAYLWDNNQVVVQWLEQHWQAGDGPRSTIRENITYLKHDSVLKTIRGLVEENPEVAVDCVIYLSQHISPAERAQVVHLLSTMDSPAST

This experiment has as its target T1, human ACC2 (Homo sapiens, UniProt O00763).
T1 construct: made in house; host or cells: insect cells (baculoviral expression system)
As to the kind of experiment: ACC2 assay, spectrophotometric 384 well assay (NADH-linked, coupled lactate dehydrogenase/pyruvate kinase). It counts as biochemical. The settings on record: ACC2 assay, hACC2 construct lacking 128 N-terminal amino acids, 25° C., 340 nm; read-out: IC50. The method, boiled down: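 ADP output tracked via pyruvate kinase/lactate dehydrogenase NADH oxidation, slope at 340 nm over 15 min, 25° C, with 500 μM ATP and 200 μM each acetyl-CoA and NADH. Enzyme: insect-cell-expressed human ACC2, N-terminal 128 residues deleted; pH 7.5 Tris with citrate, KHCO3. IC50 from four-parameter regression versus vehicle and no-acetyl-CoA controls.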
With `CCOc1cccc(-c2cc(N3CCC(c4ccc([C@H](C)NC(C)=O)cc4)CC3)ncn2)c1` [Example 22.7], the IC50 turned out to be 4100 nM. Regarding `CC(=O)N[C@@H](C)c1ccc(C2CCN(c3ccc(C(F)(F)F)nc3)CC2)cc1` [Example 15.8], the IC50 came out at 8400 nM. With `CC(=O)N[C@@H](C)c1ccc(C2CCN(c3ccc(-c4ccc(Cl)cc4)cn3)CC2)cc1` [Example 5.44], the IC50 worked out at 70 nM. In the case of `CCOc1ccc(N2CCC(c3ccc([C@H](C)NC(=O)Cc4cccnc4)cc3)CC2)cc1` [Example 6.32], the IC50 is 860 nM. For `CC(=O)N[C@@H](C)c1ccc(C2CCN(c3ncc(-c4ccc5c(c4)CCCO5)cn3)CC2)cc1` [Example 10.90], the IC50 was found to be 350 nM. Regarding `CCNc1ncc(N2CCC(c3ccc([C@H](C)NC(C)=O)cc3)CC2)cn1` [Example 16.4], the 50% inhibitory concentration (IC50) was determined as 620 nM.

For `CC(=O)N[C@@H](C)c1ccc(C2CCN(c3ncc(C(=O)NCC(N)=O)cn3)CC2)cc1` [Example 18.45], the IC50 was found to be 17200 nM.

For `CC(=O)N[C@@H](C)c1ccc(C2CCN(c3cc(NCc4ccoc4)ncn3)CC2)cc1` [Example 11.101], the half-inhibitory concentration (IC50) was 4000 nM. The result for `CC(=O)N[C@@H](C)c1ccc(C2CCN(c3ncc(-c4cccs4)cn3)CC2)cc1` [Example 10.130] reads 40 nM.

With `CCOc1ccc(N2CCC(c3ccc(CC(C)NC(C)=O)cc3)CC2)c(F)c1` (stereo not drawn) [Example 2.12], the IC50 was determined as 530 nM. For `CCCC(C)Oc1ccc(N2CCC(c3ccc([C@H](C)NC(C)=O)cc3)CC2)cc1Cl` (stereo partly drawn) [Example 8.60], the IC50 is 180 nM. The result for `CCOc1ccc(N2CCC(c3ccc([C@H](C)NC(=O)/C=N/OC)cc3)CC2)cc1` [Example 6.43] reads 1100 nM. As for `CC(=O)N[C@@H](C)c1ccc(C2CCN(c3ccc(OCC4CCOCC4)cc3)CC2)cc1` [Example 9.30], the half-maximal inhibitory concentration (IC50) came out at 2300 nM.

As for `COCCOc1ccc(N2CCC(c3ccc([C@H](C)NC(C)=O)cc3)CC2)cc1C` [Example 8.19], the IC50 was 6000 nM. As to `CC(=O)N[C@@H](C)c1ccc(C2CCN(c3ccc(OCC(C)(C)C)cc3)CC2)cc1` [Example 9.21], the IC50 stood at 100 nM. `CC(=O)N[C@@H](C)c1ccc(C2CCN(c3ccc4ccccc4n3)CC2)cc1` [Example 4.3]: the IC50 worked out at 450 nM. For the molecule `CC(=O)N[C@@H](C)c1ccc(C2CCN(c3ccc(OC4CCCC4)c(C)c3)CC2)cc1` [Example 8.35], the 50% inhibitory concentration (IC50) worked out at 490 nM. Consider `CCCOc1ccc(N2CCC(c3ccc([C@H](C)NC(C)=O)cc3)CC2)cc1C` [Example 8.31], for which the IC50 came out at 1200 nM.

Turning to `CC(=O)N[C@@H](C)c1ccc(C2CCN(c3ccnc(NC4CC4)n3)CC2)cc1` [Example 11.115], the 50% inhibitory concentration (IC50) came out at 1500 nM. The result for `CC#CCOc1ccc(N2CCC(c3ccc([C@H](C)NC(C)=O)cc3)CC2)cc1` [Example 9.25] reads 1100 nM; that for `CC(=O)N[C@@H](C)c1ccc(C2CCN(c3ncc(C4=CCC5(CC4)OCCO5)cn3)CC2)cc1` [Example 10.93], 4300 nM. As for `CCOc1ccc(N2CCC(c3ccc([C@H](C)NC(=O)N4CCCCC4)cc3)CC2)cc1` [Example 14.69], the IC50 is 12100 nM. For `CC(=O)N[C@@H](C)c1ccc(C2CCN(c3ncc(-c4ccc(CC#N)cc4)cn3)CC2)cc1` [Example 10.18], the IC50 was determined as 180 nM.

As for `CCOc1ccc(N2CCC(c3ccc([C@H](C)NC(=O)Nc4cncnc4)cc3)CC2)cc1` [Example 14.59], the half-inhibitory concentration (IC50) came out at 1500 nM.

For `C[C@H](NC(=O)C1CC1)c1ccc(C2CCN(c3ccc(OC4CCC4)cc3)CC2)cc1` [Example 1.9], the IC50 was 50 nM.

Turning to `CC(=O)N[C@@H](C)c1ccc(C2CCN(c3ncc(-c4cc5ccccc5o4)cn3)CC2)cc1` [Example 10.14], the IC50 was 100 nM. As to `C[C@H](NC(=O)C1CC1)c1ccc(C2CCN(c3ncnc(N4CCCC4)c3F)CC2)cc1` [Example 11.123], the IC50 came to 200 nM. In the case of `CCOc1ncc(N2CCC(c3ccc([C@H](C)NC(C)=O)cc3)CC2)c(OC)n1` [Example 16.10] it was 930 nM; in that of `CC(=O)N[C@@H](C)c1ccc(C2CCN(c3ncc(C(=O)Nc4ccc(C)cc4)cn3)CC2)cc1` [Example 18.17], 7900 nM; in that of `CC(=O)N[C@@H](C)c1ccc(C2CCN(c3cccc(C(=O)N4Cc5ccccc5C4)c3)CC2)cc1` [Example 29.2], 1700 nM. Regarding `C[C@H](NC(=O)C1CC1)c1ccc(C2CCN(c3ccc(OCC4CC4)cc3F)CC2)cc1` [Example 1.79], the IC50 was 180 nM. With `COC1CN(c2cc(N3CCC(c4ccc([C@H](C)NC(C)=O)cc4)CC3)ncn2)C1` [Example 11.79], the IC50 came out at 4000 nM. In the case of `CC(=O)N[C@@H](C)c1ccc(C2CCN(c3ncc(C(C)(C)C)cn3)CC2)cc1` [Example 4.38] it was 440 nM; in that of `CCN(C(C)=O)[C@@H](C)c1ccc(C2CCN(c3ccc(OCC4CC4)cc3)CC2)cc1` [Example 39.2], 1500 nM; in that of `COCCCOc1cccc(N2CCC(c3ccc([C@H](C)NC(C)=O)cc3)CC2)c1` [Example 9.9], 210 nM. On to `CC(=O)N[C@@H](C)c1ccc(C2CCN(c3ccc(OC(C)C)c(C)c3)CC2)cc1` [Example 8.23], for which the IC50 came to 570 nM. `CC(=O)N[C@@H](C)c1ccc(C2CCN(c3ccc4oc(=O)[nH]c4c3)CC2)cc1` [Example 1.68]: the IC50 stood at 23900 nM. `C[C@H](NC(=O)C1CC1)c1ccc(C2CCN(c3ncc(-c4ccccc4F)cn3)CC2)cc1` [Example 10.103]: the IC50 is 560 nM. Consider `CCC(=O)N[C@@H](C)c1ccc(C2CCN(c3ccc(OC4CC4)cc3)CC2)cc1` [Example 1.151], for which the IC50 stood at 110 nM.

As for `CC(=O)N[C@@H](C)c1ccc(C2CCN(c3ccc(Oc4ccccc4)nn3)CC2)cc1` [Example 3.10], the IC50 came out at 1600 nM. As to `CC(=O)N[C@@H](C)c1ccc(C2CCN(c3cnc(OCC4CC4)nc3)CC2)cc1` [Example 16.5], the IC50 amounted to 2500 nM. As for `COC(=O)c1cnc(N2CCC(c3ccc([C@H](C)NC(C)=O)cc3)CC2)cn1` [Example 5.53], the IC50 came to 7700 nM. For `CC(=O)N[C@@H](C)c1ccc(C2CCN(c3ccnc(NCCF)n3)CC2)cc1` [Example 11.102], the IC50 stood at 3200 nM.

In the case of `C[C@H](NC(=O)N(C)C)c1ccc(C2CCN(c3ccc(OC4CC4)cc3)CC2)cc1` [Example 1.112], the IC50 amounted to 210 nM. As for `COCc1nc2cc(N3CCC(c4ccc([C@H](C)NC(C)=O)cc4)CC3)ccc2o1` [Example 15.7], the IC50 amounted to 1500 nM. In the case of `C[C@H](NC(=O)C1CC1)c1ccc(C2CCN(c3cc4c(cc3F)OCCCO4)CC2)cc1` [Example 1.185] it was 22100 nM; in that of `CCC(C)Oc1ccc(N2CCC(c3ccc([C@H](C)NC(=O)C4CC4)cc3)CC2)cc1` (stereo partly drawn) [Example 1.10], 220 nM; in that of `CCOc1ccc(N2CCC(c3ccc([C@H](C)NC(C)=S)cc3)CC2)c(F)c1` [Example 38.2], 290 nM. For the molecule `CCOc1ccc(N2CCC(c3ccc([C@H](C)NC(=O)CC#N)cc3)CC2)cc1` [Example 6.1, (S)-2-Cyano-N-(1-{4-[1-(4-ethoxy-phenyl)-piperidin-4-yl]-phenyl}-ethyl)-acetamide], the IC50 is 460 nM. On to `CC(=O)N[C@@H](C)c1ccc(C2CCN(c3ccc(OC(C)C)c(Cl)c3)CC2)cc1` [Example 8.25], for which the IC50 was found to be 710 nM. As to `CNc1nccc(N2CCC(c3ccc([C@H](C)NC(C)=O)cc3)CC2)n1` [Example 11.84], the IC50 is 6500 nM. Regarding `COC1CN(c2nccc(N3CCC(c4ccc([C@H](C)NC(C)=O)cc4)CC3)n2)C1` [Example 11.80], the IC50 worked out at 2300 nM. For the molecule `CC(=O)N[C@@H](C)c1ccc(C2CCN(c3ccc(OCCC4CC4)cc3F)CC2)cc1` [Example 1.101], the half-maximal inhibitory concentration (IC50) is 50 nM. Turning to `CCOc1ccc(N2CCC(c3ccc([C@H](C)NC(=O)N(C)C4CC4)cc3)CC2)cc1` [Example 14.50, (S)-1-Cyclopropyl-3-(1-{4-[1-(4-ethoxy-phenyl)-piperidin-4-yl]-phenyl}-ethyl)-1-methylurea], the IC50 is 3800 nM. In the case of `CCOCCOc1cccc(N2CCC(c3ccc([C@H](C)NC(C)=O)cc3)CC2)c1` [Example 8.2] it was 300 nM; in that of `CCCOc1ccc(N2CCC(c3ccc([C@H](C)NC(=O)C4CC4)cc3)CC2)c(F)c1` [Example 1.83], 100 nM; in that of `CCc1ccc(-c2cnc(N3CCC(c4ccc([C@H](C)NC(C)=O)cc4)CC3)nc2)cc1` [Example 10.6], 100 nM. The result for `CCCCNc1cc(N2CCC(c3ccc([C@H](C)NC(C)=O)cc3)CC2)ncn1` [Example 11.62] reads 3300 nM. In the case of `CC(=O)N[C@@H](C)c1ccc(C2CCN(c3ccnc(NCC4CC4)n3)CC2)cc1` [Example 11.111] it was 640 nM.

In the case of `CC(=O)N(C)[C@@H](C)c1ccc(C2CCN(c3ccc(OCC4CC4)cc3)CC2)cc1` [Example 39.1, (S)—N-(1-(4-(1-(4-Cyclopropylmethoxyphenyl)piperidin-4-yl)phenyl)ethyl)-N-methylacetamide], the IC50 stood at 12000 nM. Take `CCCOc1ccc(N2CCC(c3ccc([C@H](C)NC(=O)N(C)C)cc3)CC2)nc1` [Example 1.178]: the IC50 was determined as 170 nM. As to `CCC(=O)N[C@@H](C)c1ccc(C2CCN(c3ccc(OCC4CC4(F)F)cc3)CC2)cc1` (stereo partly drawn) [Example 1.152], the IC50 came to 80 nM. In the case of `CC(=O)N[C@@H](C)c1ccc(C2CCN(c3ccc(OC4CCC4)c(C)c3)CC2)cc1` [Example 8.11] it was 1800 nM. The result for `CC(=O)N[C@@H](C)c1ccc(C2CCN(c3nc(N4CCCCC4)ncc3C(F)(F)F)CC2)cc1` [Example 5.201] reads 790 nM; that for `CC(=O)N[C@@H](C)c1ccc(C2CCN(c3ncc(F)cn3)CC2)cc1` [Example 4.40], 930 nM. For `CC(=O)N[C@@H](C)c1ccc(C2CCN(c3ccnc(OCc4ccncc4)c3)CC2)cc1` [Example 19.38], the half-inhibitory concentration (IC50) was determined as 1200 nM.
